Reference: PMC10072198, “A covalent inhibitor targeting the papain-like protease from SARS-CoV-2 inhibits viral replication” (RSC Advances, 2023)
Entries after “also recorded” stand apart in the source; their conditions may differ.

Columns and labels:
PLpro from SARS-CoV-2 = PLpro from SARS-CoV-2 (Severe acute respiratory syndrome coronavirus 2, UniProt P0DTD1); experiment: Fluorescence based PLpro activity assay (R-L-R-G-G-AMC substrate); type: biochemical; settings: read-out: IC50 (PLpro inhibition)
[1] = system: SARS-CoV-2 (US/WA1/2020 isolate); experiment: SARS-CoV-2 infection of cells (dsRNA staining, RT-qPCR of viral RNA); type: cell-based; settings: for inhibition of SARS-CoV-2 replication in cells (in words): Calu-3 and/or Vero E6 cells
SARS-CoV-2 Mpro(3CL) = SARS-CoV-2 Mpro(3CL) (Severe acute respiratory syndrome coronavirus 2, UniProt P0DTD1); experiment: Fluorescence based Mpro(3CL) activity assay; type: biochemical
Method: Fluorescence based Mpro(3CL) activity assays
The ability of compounds 1, 19 and 20 to inhibit Mpro was determined using SensoLyte® 520 SARS-CoV-2 3CL Protease Activity Assay Kit (Anaspec), following the manufacturer’s instructions. Briefly, 40 µL diluted Mpro enzyme solution was added to a flat-bottom 96-well plate.
10 µL of varying concentrations of test compounds or GC 376 solution (an Mpro inhibitor) was (1 picture or pasted object on this page, not shown here) […]
(§1) subsequently added to the enzyme solution. The mixed solutions were incubated at room temperature for 20 min. 50 µL of Mpro protease substrate solution was added to each well, followed by 30 min incubation at 37 °C. The Mpro activity was detected by measuring the fluorescence emission intensity λ excitation=490 nm; λ emission=520nm.
(§2) Compound concentration µM
(§3) Fluorescence based PLpro activity assay in the presence of […] (DTT) and […]
(§4) PLpro inhibition assays were performed in the presence of 5 mM DTT and GSH to determine if […]
(§5) PLpro protease activity was measured with peptide substrate x-x-G-G-AMC (Bachem) in the presence or absence of 5 mM DTT and GSH.
(§6) PLpro was added into a black, flat-bottom 96-well plate at a final concentration of 50 nM with reaction buffer [150 mM NaCl, 20 mM HEPES, 0.1mg/mL BSA, pH 7.5] with or without 5 mM DTT […]
(§7) 0-80 µM for 20 min at room temperature. The enzyme activity assay was initiated by mixing the x-x-G-G-AMC probe at a final 50 µM and incubating for another 20 min at room temperature. The reaction was ended by adding 1 µL of aqueous citric acid. The PLpro activity was detected by measuring the fluorescence emission intensity λ excitation=360 nm; λ emission=460nm.

PLpro [2] = molecular target: T1, PLpro (Severe acute respiratory syndrome coronavirus 2, UniProt P0DTD1); experiment: PLpro irreversibility test (pre-incubation then dilution); type: biochemical, SARS-CoV-2
Source text: All error bars represent the standard error of the mean for n = 3 replicates.

PLpro [3] = molecular target: T1, PLpro; experiment: PLpro activity assay in the presence of DTT and GSH; type: biochemical, SARS-CoV-2; settings: 5 mM glutathione or 5 mM DTT
Method: as §1, §2, §3, §4, §5, §6, §7

in vitro = settings: human
[4] = Determination of GSH t1/2 values; settings: buffer, pH 7.4
SARS-CoV PLpro = settings: cited from earlier work
SARS-CoV2 = settings: mouse, in vivo, po; cited from earlier work

SMILES: O=C(CCl)Nc1ccc2c(c1)NC(=O)CO2 [Compound 1]
- IC50 (PLpro from SARS-CoV-2): 18 µM
- inhibition of SARS-CoV-2 replication in cells (in words) [1]: blocked SARS-CoV-2 replication in both cell lines; also recorded: inhibited viral replication in both cell lines
- IC50 ([1]; Severe acute respiratory syndrome coronavirus 2, Calu-3 and Vero E6 cells, 72 hours, read-out: IC50 for inhibiting viral replication): < 20 µM
- inhibition of Mpro (in words) (SARS-CoV-2 Mpro(3CL)): did not inhibit; also recorded: no interaction
- PLpro inhibition without pre-incubation (PLpro [2]; 500 nM, without pre-incubation at 50 μM): no inhibition
- PLpro inhibition after pre-incubation and dilution (PLpro [2]; pre-incubated at 50 μM for 1 hour, then diluted to 500 nM): complete inhibition
- PLpro inhibition in the presence of thiols (in words) (PLpro [3]): able to inhibit PLpro

SMILES: O=C(CCl)Nc1ncc([N+](=O)[O-])s1 [Compound 2]
- IC50 (PLpro from SARS-CoV-2): 13 µM

SMILES: Cn1ncc(C(=O)CCl)n1 [Compound 3]
- IC50 (PLpro from SARS-CoV-2): 0.3 µM
- inhibition of SARS-CoV-2 replication in cells (in words) [1]: not effective in cells
- CC50 (in vitro): 62.5 µM

SMILES: O=C(NCCc1ccc(F)cc1)n1ccnc1 [Compound 4]
- IC50 (PLpro from SARS-CoV-2): 2.5 µM
- CC50 (in vitro): > 500 µM
- half-life at 0.05 mM [4]: 13.4 min

SMILES: O=S(=O)(F)c1cncc(Cl)n1 [Compound 5]
- IC50 (PLpro from SARS-CoV-2): 1.7 µM
- CC50 (in vitro): > 500 µM

SMILES: C=CS(=O)(=O)c1nc2ccccc2s1 [Compound 6]
- IC50 (PLpro from SARS-CoV-2): 1 µM

SMILES: O=C1COc2cc([N+](=O)[O-])c(NC(=O)CCl)cc2N1 [Compound 19]
- IC50 (PLpro from SARS-CoV-2): 5 µM
- inhibition of SARS-CoV-2 replication in cells (in words) [1]: no inhibitory activity against SARS-CoV-2; also recorded: did not inhibit viral replication
- inhibition of Mpro (in words) (SARS-CoV-2 Mpro(3CL)): no interaction

SMILES: O=C(CCl)Nc1cc2c(cc1Br)CCC(=O)N2 [Compound 20]
- IC50 (PLpro from SARS-CoV-2): 6 µM
- inhibition of SARS-CoV-2 replication in cells (in words) [1]: no inhibitory activity against SARS-CoV-2; also recorded: did not inhibit viral replication
- inhibition of Mpro (in words) (SARS-CoV-2 Mpro(3CL)): no interaction

SMILES: Cc1ccc(N)cc1C(=O)N[C@H](C)c1cccc2ccccc12 [GRL-0617]
- antiviral activity against SARS-CoV2 in mice (SARS-CoV2): moderate antiviral activity
